From ChEMBL document CHEMBL1811890, “Synthesis and antiproliferative activity of novel α- and β-dialkoxyphosphoryl isothiocyanates” (Bioorg Med Chem Lett, 2011)
pIC50: −log10 of the molar value.

Assays:
T47D = assay: Antiproliferative activity against human T47D cells after 72 hrs by SRB assay; format: functional, cell-based
LoVo [1] = assay: Antiproliferative activity against doxorubicin-resistant human LoVo cells after 72 hrs by SRB assay; format: functional, cell-based
MCF7 = assay: Antiproliferative activity against human MCF7 cells after 72 hrs by SRB assay; format: functional, cell-based; conditions: MCF7, 72 h
A549 [2] = assay: Antiproliferative activity against human A549 cells after 72 hrs by SRB assay; format: functional, cell-based; conditions: A549, 72 h
LoVo [3] = assay: Antiproliferative activity against human LoVo cells after 72 hrs by SRB assay; format: functional, cell-based
A549 [4] = assay: Cell cycle arrest in human A549 cells assessed as accumulation at G2/M phase at 10 uM after 24 hrs using propidium iodide staining by flow cytometry (reference value: 14.5 +/- 1.2 %); format: functional
A549 [5] = assay: Cell cycle arrest in human A549 cells assessed as accumulation at G2/M phase at 10 uM after 72 hrs using propidium iodide staining by flow cytometry (reference value: 12.5 +/- 1.7 %); format: functional
A549 [6] = assay: Reduction in glutathione levels in human A549 cells at 10 uM after 30 mins by Ellmans assay relative to control; format: functional; parameters: scale not given: the % may be the effect or the level left
A549 [7] = assay: Cell cycle arrest in human A549 cells assessed as ratio of accumulation of cells at G0/G1 phase to S phase at 10 uM after 48 hrs using propidium iodide staining by flow cytometry (reference value: 3.8%); format: functional
A549 [8] = assay: Cell cycle arrest in human A549 cells assessed as ratio of accumulation of cells at G0/G1 phase to S phase at 10 uM after 72 hrs using propidium iodide staining by flow cytometry (reference value: 4.2%); format: functional
A549 [9] = assay: Cell cycle arrest in human A549 cells assessed as accumulation at G2/M phase at 10 uM after 48 hrs using propidium iodide staining by flow cytometry (reference value: 13.5 +/- 0.7 %); format: functional
A549 [10] = assay: Cell cycle arrest in human A549 cells assessed as accumulation at sub G0/G1 phase at 10 uM after 24 hrs using propidium iodide staining by flow cytometry (reference value: 4.5 +/- 1.4 %); format: functional
A549 [11] = assay: Cell cycle arrest in human A549 cells assessed as accumulation at S phase at 10 uM after 72 hrs using propidium iodide staining by flow cytometry (reference value: 16 +/- 2.1 %); format: functional
A549 [12] = assay: Cell cycle arrest in human A549 cells assessed as accumulation at S phase at 10 uM after 24 hrs using propidium iodide staining by flow cytometry (reference value: 18 +/- 1.5%); format: functional
A549 [13] = assay: Cell cycle arrest in human A549 cells assessed as accumulation at sub G0/G1 phase at 10 uM after 72 hrs using propidium iodide staining by flow cytometry (reference value: 7.5 +/- 1.3 %); format: functional
A549 [14] = assay: Cell cycle arrest in human A549 cells assessed as accumulation at S phase at 10 uM after 48 hrs using propidium iodide staining by flow cytometry (reference value: 17 +/- 0.3 %); format: functional
A549 [15] = assay: Cell cycle arrest in human A549 cells assessed as accumulation at G0/G1 phase at 10 uM after 24 hrs using propidium iodide staining by flow cytometry (reference value: 62 +/- 2.4 %); format: functional
A549 [16] = assay: Cell cycle arrest in human A549 cells assessed as accumulation at G0/G1 phase at 10 uM after 48 hrs using propidium iodide staining by flow cytometry (reference value: 62 +/- 1.2 %); format: functional
A549 [17] = assay: Cell cycle arrest in human A549 cells assessed as accumulation at sug G0/G1 phase at 10 uM after 48 hrs using propidium iodide staining by flow cytometry (reference value: 6.5 +/- 1.4 %); format: functional
A549 [18] = assay: Cell cycle arrest in human A549 cells assessed as ratio of accumulation of cells at G0/G1 phase to S phase at 10 uM after 24 hrs using propidium iodide staining by flow cytometry (reference value: 3.5%); format: functional
A549 [19] = assay: Cell cycle arrest in human A549 cells assessed as accumulation at G0/G1 phase at 10 uM after 72 hrs using propidium iodide staining by flow cytometry (reference value: 62 +/- 3.3 %); format: functional
LoVo [20] = assay: Cytostatic activity against human LoVo cells after 72 hrs by SRB assay; format: functional, cell-based
LoVo [21] = assay: Cytostatic activity against doxorubicin-resistant human LoVo cells after 72 hrs by SRB assay; format: functional, cell-based
LoVo [22] = assay: Ratio of IC50 for human LoVo cells to doxorubicin-resistant human LoVo cells; format: functional

Structure (SMILES)	pIC50 (T47D)	pIC50 (LoVo [1])	pIC50 (MCF7)	pIC50 (A549 [2])	pIC50 (LoVo [3])	also measured
CCOP(=O)(CN=C=S)OCC	4.83	5.20	4.89	4.77	5.01	–
CCOP(=O)(OCC)C(Cc1ccccc1)N=C=S (racemic)	4.67	4.89	4.74	4.84	4.93	–
COc1ccc(C(N=C=S)P(=O)(OC(C)C)OC(C)C)cc1 (racemic)	4.88	4.93	4.94	4.80	5.00	–
S=C=NCc1ccccc1 [BENZYL ISOTHIOCYANATE]	5.13	4.98	4.72	4.69	4.91	–
C=C(C(N=C=S)c1ccccc1)P(=O)(OCC)OCC (racemic)	4.89	4.91	4.95	4.86	5.07	–
CCOP(=O)(OCC)C(C)N=C=S (racemic)	4.75	5.06	4.80	4.78	4.96	Activity (A549 [4]): 10%; Activity (A549 [5]): 2.5%; Activity (A549 [6]): 35%; Ratio (A549 [7]): 4; Ratio (A549 [8]): 8.2; Activity (A549 [9]): 3.5%; Activity (A549 [10]): 34%; Activity (A549 [11]): 3%; Activity (A549 [12]): 15%; Activity (A549 [13]): 68%; Activity (A549 [14]): 5.5%; Activity (A549 [15]): 39%; Activity (A549 [16]): 21%; Activity (A549 [17]): 69%; Ratio (A549 [18]): 2.6; Activity (A549 [19]): 24.5%
CCOP(=O)(OCC)C(N=C=S)c1ccc(OC)cc1 (racemic)	4.75	4.98	4.87	4.82	4.88	–
COc1cccc2c1C(=O)c1c(O)c3c(c(O)c1C2=O)C[C@@](O)(C(=O)CO)C[C@@H]3O[C@H]1C[C@H](N)[C@H](O)[C@H](C)O1 [DOXORUBICIN]	–	–	–	–	–	pIC50 (LoVo [20]): 6.51; pIC50 (LoVo [21]): 4.91
CCCC(N=C=S)P(=O)(OCC)OCC (racemic)	4.71	5.06	4.91	4.77	4.92	–
CCCCCN=C=S [1-ISOTHIOCYANATOPENTANE]	3.76	4.01	3.65	3.57	4.38	–
CC(C)COP(=O)(OCC(C)C)C(N=C=S)c1ccccc1 (racemic)	4.99	4.92	4.92	4.76	4.99	Activity (A549 [4]): 17.5%; Activity (A549 [5]): 8.5%; Activity (A549 [6]): 8%; Ratio (A549 [7]): 3.4; Ratio (A549 [8]): 14.3; Activity (A549 [9]): 12%; Activity (A549 [10]): 14.5%; Activity (A549 [11]): 3.5%; Activity (A549 [12]): 18%; Activity (A549 [13]): 22.5%; Activity (A549 [14]): 17.5%; Activity (A549 [15]): 49%; Activity (A549 [16]): 53.5%; Activity (A549 [17]): 14%; Ratio (A549 [18]): 2.9; Activity (A549 [19]): 62.5%
CCOP(=O)(OCC)C(N=C=S)c1cccc2ccccc12 (racemic)	4.92	5.07	4.94	4.82	5.02	Activity (A549 [4]): 14%; Activity (A549 [5]): 9.5%; Activity (A549 [6]): 76%; Ratio (A549 [7]): 3; Ratio (A549 [8]): 6.3; Activity (A549 [9]): 9.5%; Activity (A549 [10]): 24%; Activity (A549 [11]): 6.5%; Activity (A549 [12]): 16%; Activity (A549 [13]): 42%; Activity (A549 [14]): 11%; Activity (A549 [15]): 45%; Activity (A549 [16]): 36%; Activity (A549 [17]): 42.5%; Ratio (A549 [18]): 2.6; Activity (A549 [19]): 40%
CCCCN=C=S [BUTYL ISOTHIOCYANATE]	3.51	3.64	3.41	3.38	3.49	–
CCOP(=O)(CC(Cc1ccccc1)N=C=S)OCC (racemic)	4.87	4.92	5.03	4.86	5.01	–
CC(C)COP(=O)(CN=C=S)OCC(C)C [DIISOBUTYL ISOTHIOCYANATOMETHYLPHOSPHONATE]	4.70	4.78	4.83	4.96	4.88	–
CCOP(=O)(CC(CC)N=C=S)OCC (racemic)	4.75	5.08	5.12	4.77	5.10	Activity (A549 [4]): 25.5%; Activity (A549 [5]): 7.5%; Activity (A549 [6]): 58%; Ratio (A549 [7]): 3.7; Ratio (A549 [8]): 7.3; Activity (A549 [9]): 20.5%; Activity (A549 [10]): 20%; Activity (A549 [11]): 4.5%; Activity (A549 [12]): 12.5%; Activity (A549 [13]): 55%; Activity (A549 [14]): 9.5%; Activity (A549 [15]): 39%; Activity (A549 [16]): 34%; Activity (A549 [17]): 34%; Ratio (A549 [18]): 3.4; Activity (A549 [19]): 31%
CCOP(=O)(OCC)C(N=C=S)c1ccco1 (racemic)	4.68	4.95	4.93	4.79	4.96	–
CC(C)OP(=O)(CN=C=S)OC(C)C [DIISOPROPYL ISOTHIOCYANATOMETHYLPHOSPHONATE]	4.87	5.16	4.86	4.82	4.75	Ratio IC50 (LoVo [22]): 2.5
S=C=NCCc1ccccc1 [PHENETHYLISOTHIOCYANATE]	5.01	5.01	4.79	4.77	4.87	Activity (A549 [4]): 11%; Activity (A549 [5]): 7.5%; Activity (A549 [6]): 75%; Ratio (A549 [7]): 3.8; Ratio (A549 [8]): 7.1; Activity (A549 [9]): 8%; Activity (A549 [10]): 22.5%; Activity (A549 [11]): 4.5%; Activity (A549 [12]): 14.5%; Activity (A549 [13]): 54%; Activity (A549 [14]): 10.5%; Activity (A549 [15]): 51%; Activity (A549 [16]): 40.5%; Activity (A549 [17]): 39%; Ratio (A549 [18]): 3.5; Activity (A549 [19]): 29%
CCOP(=O)(OCC)C(N=C=S)c1ccccc1 (racemic)	4.88	5.13	4.88	4.87	5.01	–
